Source: patent US20120260922A1, “TOPICAL USE OF HYDROXYTYROSOL AND DERIVATIVES FOR THE PREVENTION OF HIV INFECTION” (priority 2009, published 2012)

What was measured:
[1] = system: X4-tropic virus (NL.4.3 Ren); assay: Antiviral activity in PBMC's, X4-tropic virus; format: cell-based, HIV-1; conditions: PBMC's activated with PHA+IL-2; compared with MT-2
Protocol: Similar assays were carried out using peripheral blood mononuclear cells (PBMC's) for healthy donors, prior activation with PHA+IL-2 during 48 hours and maintaining with IL-2 for at least another 48 hours. In this case the number of cells per well was 250.000. In addition, infection with HIV virus with R5-tropism (JR-Ren) was also included in the assays.

[2] = system: raltegravir resistant HIV virus (mutation 148); assay: Antiviral activity against raltegravir resistant viruses; format: cell-based; conditions: viruses resistant to raltegravir
MT-2 cells = assay: Viability assay on non-infected MT-2 cells; conditions: 48 hour
[3] = system: recombinant virus NL4.3-delta-env-VSV-Luc (HIV VSV pseudotyped virus); format: cell-based, HIV-1
HIV-integrase = HIV-integrase (Human immunodeficiency virus type 1 group M subtype B, UniProt P04585); conditions: Huang et al. 2007; cited from earlier work
[4] = Vaginal tolerance in rabbits after repeated topical administration; format: in vivo; conditions: rabbit, once daily 7 days, solution 90 and 397 mg/L
Protocol: To determine the safety of hydroxytyrosol, a study of vaginal tolerance in rabbits after repeated once daily administration during 7 days was performed. Hydroxytyrosol was applied as a solution.

In the case of `OCCc1ccc(O)c(O)c1` [Hydroxytyrosol, 4-(2-hydroxyethyl)-1,2-benzenediol], the “IC50 value for infection with X4-tropic” value [1] is reported as “higher than in the assays with cell line MT-2”, the “activity against integrase resistant viruses” value [2] is reported as “lack of cross resistance” and the “activity against integrase resistant viruses” value ([2]; listed as hydroxytyrosol) is reported as “mantained its activity”. For the same molecule, the “toxicity / cell viability” value (MT-2 cells) was “not due to toxicity”, the “inhibition of VSV pseudotyped viruses” value [3] was “inhibits VSV pseudotyped viruses” and the “effect on in vitro HIV-integrase activity” value (HIV-integrase) was “dose-dependent inhibitory effect”. For the same molecule, the “mean irritation value (MIV)” value [4] was 0.00 and the “morphological alterations in the vagina” value [4] was “no morphological alterations”.
